From US12551577B2, “7-ethyl-10-hydroxycamptothecin drug precursor with fluorescence activity, and preparation method and use thereof” (SOOCHOW UNIVERSITY, priority 2021, dated 2026)

Assay: Solubility in chloroform by weight loss method
Type: physicochemical
Details: 2 mg in 300 μL chloroform
Description: The weights of the two centrifuge tubes were recorded on an analytical balance, respectively. […] 300 μL of chloroform was added to the centrifuge tube, shaken, and centrifuged. […] The solubility of different compounds in chloroform was estimated by the weight loss method (where the specific operation includes pipetting the solution, and lyophilizing the remaining solid and weighing).

For `CCc1c2c(nc3ccc(O)cc13)-c1cc3c(c(=O)n1C2)COC(=O)[C@]3(O)CC` [SN38, 7-Ethyl-10-hydroxycamptothecin], the solubility in chloroform was “hardly soluble”.
